Source: US9181234B2, “Antibacterial compounds” (priority 2010, dated 2015)
Values after ≈ are worked out from the molar mass of the structure shown.

How the values were obtained:
physchem = conditions: kinetic from dmso stock
Procedure, shortened: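 DMSO doubling dilutions were diluted twenty-fold into 100 mM citrate (pH 4), PBS (pH 7.4) or carbonate-bicarbonate (pH 9). After 24 h equilibration at room temperature, absorbance was read at 620 nm. The reported value is the highest concentration without measurable precipitate.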

[1] = test system: Enterococcus faecalis (Isolate ID ATCC 29212); test: Antibacterial activity, MIC, E. faecalis; format: cell-based; conditions: Enterococcus faecalis, ATCC29212; Gram positive strain; broth microdilution or agar dilution
Procedure, shortened: (§1)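 Readout is the MIC, established according to CLSI standard M7-A7 using either agar dilution or broth microdilution.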

[2] = test system: Haemophilus influenzae (Isolate ID ATCC 49247); test: Antibacterial activity, MIC, H. influenzae; format: cell-based; conditions: Haemophilus influenzae, ATCC49247; Gram negative strain; broth microdilution or agar dilution
Procedure, shortened: as §1

[3] = test system: Staphylococcus aureus (Isolate ID ATCC 29213); test: Antibacterial activity, MIC, S. aureus; format: cell-based; conditions: Staphylococcus aureus, ATCC29213, Gram positive strain; broth microdilution or agar dilution
Procedure, shortened: as §1

[4] = test system: Streptococcus pyogenes (Isolate ID ATCC 51339); test: Antibacterial activity, MIC, S. pyogenes; format: cell-based; conditions: Streptococcus pyogenes, ATCC51339, Gram positive strain; broth microdilution or agar dilution
Procedure, shortened: as §1

[5] = pH 7.4, aqueous buffer, Solubility (pH 7.4)
[6] = pH 7.4, aqueous buffer, Solubility Range
[7] = pH 9, aqueous buffer, Max Solubility
[8] = pH 9, aqueous buffer, Solubility Range (maximum solubility)
[9] = pH 7.4, aqueous buffer, Max Solubility
[10] = pH 7.4, aqueous buffer, Solubility Range (maximum solubility)

solubility at 24 h (physchem; [5]) [µg/mL]	solubility at 24 h (physchem; [6]) [µg/mL]	solubility at 24 h (physchem; [7]) [µg/mL]	solubility at 24 h (physchem; [8]) [µg/mL]	MIC [1] [µg/mL]	MIC [2] [µg/mL]	MIC [3] [µg/mL]	MIC [4] [µg/mL]	solubility at 24 h (physchem; [9]) [µg/mL]	solubility at 24 h (physchem; [10]) [µg/mL]	Compound
100 (≈ 178 µM)	12.5 to 400 (≈ 22.2 to 711 µM)	400 (≈ 711 µM)	400 to 800 (≈ 711 to 1420 µM)	≤ 0.25	1 to 16 (≈ 1.78 to 28.4 µM)	0.25 to 1 (≈ 0.444 to 1.78 µM)	0.25 to 1 (≈ 0.444 to 1.78 µM)			CCNC(=O)Nc1nc2cc(-c3cnc(N4CCC(C)(C(=O)O)CC4)nc3)cc(C#Cc3nnc(C)s3)c2s1 [Compound 153]
200 (≈ 369 µM)	12.5 to 400 (≈ 23 to 737 µM)	400 (≈ 737 µM)	400 to 800 (≈ 737 to 1470 µM)	≤ 0.25	1 to 16 (≈ 1.84 to 29.5 µM)	1 to 16 (≈ 1.84 to 29.5 µM)	0.25 to 1 (≈ 0.461 to 1.84 µM)			CCNC(=O)Nc1nc2cc(-c3cnc(N4CCC(C)(C(=O)O)CC4)nc3)cc(C#Cc3ncccn3)c2s1 [Compound 154]
400 (≈ 737 µM)	400 to 800 (≈ 737 to 1470 µM)	≥ 800	> 800	≤ 0.25	1 to 16 (≈ 1.84 to 29.5 µM)	1 to 16 (≈ 1.84 to 29.5 µM)	0.25 to 1 (≈ 0.461 to 1.84 µM)			CCNC(=O)Nc1nc2cc(-c3cnc(N4CCC(C)(C(=O)O)CC4)nc3)cc(C#Cc3ccncn3)c2s1 [Compound 155]
≥ 800	> 800			≤ 0.25	1 to 16 (≈ 1.83 to 29.2 µM)	≤ 0.25	≤ 0.25	≥ 800	> 800	CCNC(=O)Nc1nc2cc(-c3cnc(N4CCC(C)(C(=O)O)CC4)nc3)cc(C#Cc3nccs3)c2s1 [Compound 156]
≥ 800	> 800			≤ 0.25	0.25 to 1 (≈ 0.461 to 1.84 µM)	≤ 0.25	≤ 0.25	≥ 800	> 800	CCNC(=O)Nc1nc2cc(-c3cnc(N4CCC(C)(C(=O)O)CC4)nc3)cc(C#Cc3cnccn3)c2s1 [Compound 157]
≥ 800	> 800			1 to 16 (≈ 1.88 to 30.1 µM)	1 to 16 (≈ 1.88 to 30.1 µM)	1 to 16 (≈ 1.88 to 30.1 µM)	1 to 16 (≈ 1.88 to 30.1 µM)	≥ 800	> 800	CCNC(=O)Nc1nc2cc(-c3cnc(CN4CCC(C)(C(=O)O)CC4)nc3)cc(-c3ccccn3)c2s1 [Compound 160]
≥ 800	> 800			≤ 0.25	0.25 to 1 (≈ 0.496 to 1.99 µM)	0.25 to 1 (≈ 0.496 to 1.99 µM)	≤ 0.25	≥ 800	> 800	CCNC(=O)Nc1nc2cc(-c3cnc(N4CCCC4(C)C(=O)O)nc3)cc(-c3ccccn3)c2s1 (centres unmarked) [Compound 163]
≥ 800	> 800			1 to 16 (≈ 1.79 to 28.7 µM)	> 16	1 to 16 (≈ 1.79 to 28.7 µM)	0.25 to 1 (≈ 0.448 to 1.79 µM)			CCNC(=O)Nc1nc2cc(-c3cnc(N4CCC(C(=O)O)(C(F)(F)F)C4)nc3)cc(-c3ccccn3)c2s1 (centres unmarked) [Compound 164]
≥ 800	> 800			≤ 0.25	1 to 16 (≈ 1.89 to 30.2 µM)	≤ 0.25	≤ 0.25			CCNC(=O)Nc1nc2cc(-c3cnc(N4CC5CCCC5(C(=O)O)C4)nc3)cc(-c3ccccn3)c2s1 (centres unmarked) [Compound 165]
12.5 (≈ 19.8 µM)	12.5 to 400 (≈ 19.8 to 632 µM)			≤ 0.25	> 16	1 to 16 (≈ 1.58 to 25.3 µM)	≤ 0.25			CCNC(=O)Nc1nc2cc(-c3cnc(N4CCC(NC(=O)OC(C)(C)C)(C(=O)OC)CC4)nc3)cc(-c3ccccn3)c2s1 [Compound 167]
25 (≈ 46.9 µM)	12.5 to 400 (≈ 23.5 to 751 µM)			≤ 0.25	> 16	0.25 to 1 (≈ 0.469 to 1.88 µM)	1 to 16 (≈ 1.88 to 30 µM)			CCNC(=O)Nc1nc2cc(-c3cnc(N4CCC(N)(C(=O)OC)CC4)nc3)cc(-c3ccccn3)c2s1 [Compound 168]
6.25 (≈ 11.8 µM)	< 12.5			0.25 to 1 (≈ 0.47 to 1.88 µM)	1 to 16 (≈ 1.88 to 30.1 µM)	1 to 16 (≈ 1.88 to 30.1 µM)	≤ 0.25			CCNC(=O)Nc1nc2cc(-c3cnc(N4CCC(C)(C(=O)OC)CC4)nc3)cc(-c3ccccn3)c2s1 [Compound 169]
